In brackets after ≈: the same amount, converted by molar mass. Where two headings read alike, the source gives them in different places.
Tests used:
Test in all cases: Antimicrobial susceptibility testing (MIC), BD Phoenix Automated Microbiology System; as to interpretation of the result: key: R, resistant; I, intermediate; S, susceptible; R*: *As a rule, when ESBL is detected, an interpretation of susceptible or intermediate for penicillins, cephalosporins and aztreonam is reported as resistant
Type in all cases: cell-based
Pseudomonas aeruginosa = details: for MIC: Pseudomonas aeruginosa
Text: (§1) The inventors performed antimicrobial susceptibility testing (AST) by determining the minimal inhibiting concentration (MIC) of a panel of antimicrobials on all twenty bacterial isolates using the BD Phoenix Automated Microbiology System (Table 3). Antimicrobial panels included several drugs from each of the four most commonly used classes of antimicrobials, aminoglycosides, β-lactams, carbapenems and fluoroquinolones. The panels also included antimicrobials from other classes, such as trimethoprim/sulfamethoxazole, but resistance to these was not considered in the classification of isolates as multidrug-resistant.

Acinetobacter baumannii = system: Acinetobacter baumannii; as to interpretation of the result: key: R, resistant; I, intermediate; S, susceptible; R*: *As a rule, when ESBL is detected, an interpretation of susceptible or intermediate for penicillins, cephalosporins and aztreonam is reported as resistant
Text: as §1

Escherichia coli = details: for MIC: Escherichia coli
Text: as §1

Klebsiella ssp. = details: for MIC: Klebsiella
Text: as §1

[1] = Pseudomonas aeruginosa isolate 1
[2] = Pseudomonas aeruginosa isolate 2
[3] = Pseudomonas aeruginosa isolate 3
[4] = Pseudomonas aeruginosa isolate 4
[5] = Pseudomonas aeruginosa isolate 5
[6] = Acinetobacter baumannii isolate 1
[7] = Acinetobacter baumannii isolate 2
[8] = Acinetobacter baumannii isolate 3
[9] = Acinetobacter baumannii isolate 4
[10] = Acinetobacter baumannii isolate 5

| Compound | interpretation of the result (Pseudomonas aeruginosa; [1]) | minimal inhibiting concentration (Pseudomonas aeruginosa; [1]) | interpretation of the result (Pseudomonas aeruginosa; [2]) | minimal inhibiting concentration (Pseudomonas aeruginosa; [2]) | interpretation of the result (Pseudomonas aeruginosa; [3]) | minimal inhibiting concentration (Pseudomonas aeruginosa; [3]) | interpretation of the result (Pseudomonas aeruginosa; [4]) | minimal inhibiting concentration (Pseudomonas aeruginosa; [4]) | interpretation of the result (Pseudomonas aeruginosa; [5]) | minimal inhibiting concentration (Pseudomonas aeruginosa; [5]) | interpretation of the result (Escherichia coli; Escherichia coli isolate 1) | minimal inhibiting concentration (Escherichia coli; Escherichia coli isolate 1) | interpretation of the result (Escherichia coli; Escherichia coli isolate 2) | minimal inhibiting concentration (Escherichia coli; Escherichia coli isolate 2) | interpretation of the result (Escherichia coli; Escherichia coli isolate 3) | interpretation of the result (Escherichia coli; Escherichia coli isolate 4) | interpretation of the result (Escherichia coli; Escherichia coli isolate 5) | interpretation of the result (Klebsiella ssp.; Klebsiella ssp. isolate 2) | interpretation of the result (Klebsiella ssp.; Klebsiella ssp. isolate 3) | interpretation of the result (Klebsiella ssp.; Klebsiella ssp. isolate 4) | also measured |
| --- | --- | --- | --- | --- | --- | --- | --- | --- | --- | --- | --- | --- | --- | --- | --- | --- | --- | --- | --- | --- | --- |
| Gentamicin [Gent.] | S | 4 µg/mL | S | 4 µg/mL | I | 8 µg/mL | R | > 8 µg/mL | R | > 8 µg/mL | R | > 8 µg/mL | R | > 8 µg/mL | R | S | S | R | I | R | interpretation of the result (Acinetobacter baumannii; [6]): R; minimal inhibiting concentration (Acinetobacter baumannii; [6]): > 8 µg/mL; interpretation of the result (Acinetobacter baumannii; [7]): R; minimal inhibiting concentration (Acinetobacter baumannii; [7]): > 8 µg/mL; interpretation of the result (Acinetobacter baumannii; [8]): R; minimal inhibiting concentration (Acinetobacter baumannii; [8]): > 8 µg/mL; interpretation of the result (Acinetobacter baumannii; [9]): R; minimal inhibiting concentration (Acinetobacter baumannii; [9]): > 8 µg/mL; interpretation of the result (Acinetobacter baumannii; [10]): R; minimal inhibiting concentration (Acinetobacter baumannii; [10]): > 8 µg/mL; minimal inhibiting concentration (Escherichia coli; Escherichia coli isolate 3): > 8 µg/mL; minimal inhibiting concentration (Escherichia coli; Escherichia coli isolate 4): ≤ 2 µg/mL; minimal inhibiting concentration (Escherichia coli; Escherichia coli isolate 5): ≤ 2 µg/mL; interpretation of the result (Klebsiella ssp.; Klebsiella ssp. isolate 1): R; minimal inhibiting concentration (Klebsiella ssp.; Klebsiella ssp. isolate 1): > 8 µg/mL; minimal inhibiting concentration (Klebsiella ssp.; Klebsiella ssp. isolate 2): > 8 µg/mL; minimal inhibiting concentration (Klebsiella ssp.; Klebsiella ssp. isolate 3): 8 µg/mL; minimal inhibiting concentration (Klebsiella ssp.; Klebsiella ssp. isolate 4): > 8 µg/mL; interpretation of the result (Klebsiella ssp.; Klebsiella ssp. isolate 5): R; minimal inhibiting concentration (Klebsiella ssp.; Klebsiella ssp. isolate 5): > 8 µg/mL |
| CO/N=C(\C(=O)N[C@@H]1C(=O)N2C(C(=O)O)=C(CSc3nc(=O)c(=O)[nH]n3C)CS[C@H]12)c1csc(N)n1 [Co., Ceftriaxone] | R |  | R |  | R |  | R |  | R |  | R |  | R |  | R | R | R | R | R | R | MIC (Pseudomonas aeruginosa; read-out: minimal inhibiting concentration, Pseudomonas aeruginosa isolate 1): > 32 µg/mL; MIC (Pseudomonas aeruginosa; read-out: minimal inhibiting concentration, Pseudomonas aeruginosa isolate 2): > 32 µg/mL; MIC (Pseudomonas aeruginosa; read-out: minimal inhibiting concentration, Pseudomonas aeruginosa isolate 3): > 32 µg/mL; MIC (Pseudomonas aeruginosa; read-out: minimal inhibiting concentration, Pseudomonas aeruginosa isolate 4): > 32 µg/mL; MIC (Pseudomonas aeruginosa; read-out: minimal inhibiting concentration, Pseudomonas aeruginosa isolate 5): > 32 µg/mL; MIC (Escherichia coli; read-out: minimal inhibiting concentration, Escherichia coli isolate 1): > 32 µg/mL; MIC (Escherichia coli; read-out: minimal inhibiting concentration, Escherichia coli isolate 2): > 32 µg/mL; MIC (Escherichia coli; read-out: minimal inhibiting concentration, Escherichia coli isolate 3): > 32 µg/mL; MIC (Escherichia coli; read-out: minimal inhibiting concentration, Escherichia coli isolate 4): > 32 µg/mL; MIC (Escherichia coli; read-out: minimal inhibiting concentration, Escherichia coli isolate 5): > 32 µg/mL; MIC (Klebsiella ssp.; read-out: minimal inhibiting concentration, Klebsiella ssp. isolate 2): > 32 µg/mL; MIC (Klebsiella ssp.; read-out: minimal inhibiting concentration, Klebsiella ssp. isolate 3): 16 µg/mL (≈ 28.9 µM); MIC (Klebsiella ssp.; read-out: minimal inhibiting concentration, Klebsiella ssp. isolate 4): > 32 µg/mL |
| Piperacillin-Tazobactam [PipT.] | R | 64/4 | R | 64/4 | R | 64/4 | S | 32/4 | R | 64/4 | I | 32/4 | S | 2/4 | I | I | I | I | S | R | minimal inhibiting concentration (Escherichia coli; Escherichia coli isolate 3): 32/4; minimal inhibiting concentration (Escherichia coli; Escherichia coli isolate 4): 16/4; minimal inhibiting concentration (Escherichia coli; Escherichia coli isolate 5): 32/4; minimal inhibiting concentration (Klebsiella ssp.; Klebsiella ssp. isolate 2): 32/4; minimal inhibiting concentration (Klebsiella ssp.; Klebsiella ssp. isolate 3): 16/4; minimal inhibiting concentration (Klebsiella ssp.; Klebsiella ssp. isolate 4): 64/4 |
